The text below walks through data of US8552064B2, “Suramin and derivatives thereof as topical microbicide and contraceptive” (Eastern Virginia Medical School, priority 2005, dated 2013).

Broadly, the EC50 is the concentration giving half of the maximal effect.

Common to all, as to assay type: cell-based
For test [1], the system named is human sperm, zona-free hamster eggs. Description: Hamster-egg penetration test (HEPT). The procedure:
The hamster-egg penetration test (HEPT) was used to predict the fertilizing ability of human sperm by evaluating the sperm's ooctye-penetration capability as described in Yanagimachi R. et al., Biol. Reprod., 15: 471-6 (1976). The zona pellucida of hamster eggs was dissolved by treatment with a protease, and human sperm were subsequently added to the zona free eggs. Sperm binding and penetration were assessed under a standard microscope (60× magnification) after placing the sperm-egg complexes onto polylysine-coated glass slides and covered them with 22×22 mm glass coverslips. The ability of the sperm to bind and enter the egg was scored by counting the sperm nuclei lying within the egg cytoplasm. The effect of the test compound was determined by comparing the number of sperm bound to the surface of the eggs and the percentage of penetrated eggs.

The test system of test [2] is HIV-1 Ba-L. Description: C-MAGI/Ba-L assay (viral entry inhibition, BaL). Conditions: for IC50: Human immunodeficiency virus 1, BAL. The procedure:
The C-MAGI/Ba-L assays were carried out with MAGI-CCR-5 cells. The cell line was maintained in DMEM medium containing 10% FBS, 100 U/ml penicillin, 300 μg/mL glutamate and selection antibiotics as indicated above. Before assay, the cells were placed in 96 well flat tissue culture plates at 1×10^4 cells per well, and incubated overnight in the absence of antibiotics. The next day, medium was removed, and virus and compound (100 μL virus (HIVBa-L)+100 μL compound) were added. The cultures were incubated for 2 hours to facilitate virus attachment. After this incubation, the medium is removed from the wells, replaced with fresh compound-free medium, washed twice and finally incubated at 37° C. for 2 days in fresh medium. Following incubation, the medium was removed and induction of β-galactosidase enzyme activity was detected by chemiluminescence. β-galactosidase activity was detected using a chemiluminescence substrate, following the manufacture's instructions (Tropix). The TC50 and IC50 are determined using linear regression and a therapeutic index or antiviral index calculated. The results of this assay are provided herein.

In test [3] the test system is HIV-1 Ba-L in monocyte-derived dendritic cells. Description: Infection of T cells by HIV associated to dendritic cells (DC/T assay). To be noted: for EC50: Human immunodeficiency virus 1, Dendritic cell. How it is done:
Monocyte-derived dendritic cells (MO-DC), infected with the NSI/R5 strain Ba-L at 10-3 multiplicity of infection, were cultured alone or with autologous CD4(+) T cells at a ratio 1:1 or 1:10. A dilution series of suramin was added to the MO-DC, 1 hour prior to infection and remained present during infection. After infection, cells were extensively washed and compounds were added at the same concentrations as for the pre-incubation. Medium and compounds were refreshed twice a week. After 2 weeks, HIV Ag was measured in supernatants with ELISA and EC50 values (effective conc. 50%) were calculated using linear regression (Vanham G et al, AIDS 2000, 14: 2299-2311). The results of this assay are provided herein.

Values after ≈ are worked out from the molar mass of the structure shown. Where two headings read alike, the source gives them in different places.

As for `Cc1ccc(C(=O)Nc2ccc(S(=O)(=O)O)c3cc(S(=O)(=O)O)cc(S(=O)(=O)O)c23)cc1NC(=O)c1cccc(NC(=O)Nc2cccc(C(=O)Nc3cc(C(=O)Nc4ccc(S(=O)(=O)O)c5cc(S(=O)(=O)O)cc(S(=O)(=O)O)c45)ccc3C)c2)c1` [Suramin, 8,8′-(carbonylbis(imino-3,1-phenylenecarbonylimino(4-methyl-3,1-phenylene)carbonylimino))bis-1,3,5-naphthalene trisulfonic acid], the “Potency, Oolemma binding/Penetration (HEPT)” value in test [1] is “High”. The same molecule showed an inhibition of penetration in test [1] of 100%. Further, the “inhibition of sperm binding to hamster zona-free oocytes” value in test [1] worked out at 75%. For the same molecule, the “sperm penetration/fertilization of zona-free eggs” value in test [1] (n=28 oocytes) was “completely abolished sperm penetration/fertilization”. In addition, in test [2], the “Potency, HIV-1 MAGI-Bal” value is reported as “High”. Moreover, the IC50 in test [2] (HeLa, 2 h, read-out: IC50, Cell-Free Strains BaL, CD4/coreceptor expressing HeLa cells, incubation 2 hours) stood at 5.5 mg/L (≈ 4.24 µM); in test [2] (2h-incubation, read-out: IC50 against Bal), 0.39 mg/L (≈ 0.301 µM); in test [3] (Human immunodeficiency virus 1, BAL, Dendritic cell, read-out: IC50 dendritic cell (DC)/T lymphocyte model) it was 17 mg/L (≈ 13.1 µM). Also, the “Potency, HIV-1 DC” value in test [3] is given as “High”. The EC50 in test [3] (DC infected with BaL cultured alone, read-out: EC50, Dendritic Cells (DC)) was 56 ± 6 mg/L (≈ 43.2 µM); in test [3] (DC infected with BaL with autologous T lymphocytes 1:1, read-out: EC50, DC + T Cells (1:1)) it was 57.5 ± 5 mg/L; in test [3] (DC infected with BaL with autologous T lymphocytes 1:10, read-out: EC50, DC + T Cells (1:10)), 17 ± 3 mg/L.
